In brackets after ≈: the same amount, converted by molar mass.
Key:
Caco-2 = experiment: Cytotoxicity against human Caco2 cells after 48 hrs by MTT assay; type: functional, cell-based; settings: Caco-2, 48 h
T47D = experiment: Cytotoxicity against human T47D cells after 48 hrs by MTT assay; type: functional, cell-based
NIH3T3 = experiment: Cytotoxicity against mouse NIH/3T3 cells after 96 hrs by MTT assay; type: cell-based; settings: NIH3T3, 96 h
Bel-7402 = experiment: Cytotoxicity against human Bel7402 cells; type: functional, cell-based
HCT-116 = experiment: Cytotoxicity against human HCT116 cells; type: functional, cell-based
HT-29 = experiment: Cytotoxicity against human HT-29 cells after 48 hrs by MTT assay; type: functional, cell-based; settings: HT-29, 48 h

## COc1cc(-c2oc3cc(O)cc(O)c3c(=O)c2O[C@@H]2O[C@H](CO)[C@@H](O)[C@H](O)[C@H]2O[C@@H]2O[C@@H](C)[C@H](O)[C@@H](O)[C@H]2O)ccc1O
Caco-2
  IC50: 2.47 µg/mL (≈ 3.95 µM)
T47D
  IC50: 0.003 µg/mL (≈ 0.0048 µM)
NIH3T3
  IC50: > 200 µg/mL
Bel-7402
  IC50: 74.4 µM
HCT-116
  IC50: 72 µM

## CN(Cc1cnc2nc(N)nc(N)c2n1)c1ccc(C(=O)N[C@@H](CCC(=O)O)C(=O)O)cc1 [METHOTREXATE]
NIH3T3
  IC50: 0.24 µg/mL (≈ 0.528 µM)

## O=c1c(-c2ccc(O[C@@H]3O[C@H](CO)[C@@H](O)[C@H](O)[C@H]3O)c(O)c2)coc2cc(O)cc(O)c12
Caco-2
  IC50: 0.006 µg/mL (≈ 0.0134 µM)
T47D
  IC50: 0.169 µg/mL (≈ 0.377 µM)
NIH3T3
  IC50: > 200 µg/mL
HT-29
  IC50: 0.009 µg/mL (≈ 0.0201 µM)

## O=C(/C=C/c1ccc(O)cc1)c1c(O)cc(O)cc1O[C@@H]1O[C@H](CO)[C@@H](O)[C@H](O)[C@H]1O
Caco-2
  IC50: 8.45 µg/mL (≈ 19.5 µM)
T47D
  IC50: > 200 µg/mL
NIH3T3
  IC50: > 200 µg/mL

Source: ChEMBL document CHEMBL2429793, “Potent cytotoxic flavonoids from Iranian Securigera securidaca” (Med Chem Res, 2013)
